# Read-outs that look alike come from different tables or passages of the source. Peptide text beside a SMILES is read from it.
# System: HSV1
# Type: cell-based, Human herpes simplex virus type 1
# Conditions: for efficacy for reducing HSV1 infectivity (in words): Examples 2 and 3
# Description: African Green Monkey Kidney (Vero) cells were maintained in Eagle's minimum essential medium with Earle's salt (EMEM) and supplemented with 10% foetal calf serum (heat-inactivated), 4 mM L-glutamine, and 1% (v/v) nonessential amino acids, plus penicillin and streptomycin (100 IU/mg and […], respectively) (maintenance medium referred to as 10% EMEM). The cells were incubated at 37° C. in a humidified atmosphere of air with 5% CO2.
# On harvesting, monolayers were washed in phosphate-buffered saline (PBS), and dislodged by incubating with trypsin in PBS for 30 min, before inactivating trypsin by addition of an equal volume of 10% EMEM and centrifuging at 500 g (5 min, 4° C.). Cell pellets were resuspended in 10% EMEM, prior to cell counting and seeding of 24-well plates. For antiviral assays, medium containing only 0.5% FCS was used (referred to as 0.5% EMEM).
# Three separate passages of HSV1 virus were prepared by infecting Vero cells, and preparing semi-pure suspensions of virus from tissue culture supernatant and cell lysates, before freezing aliquots of virus at −85° C. Viral infectivity was assessed by carrying out plaque assays on serial dilutions of thawed aliquots (expressed in pfu/ml).
# Peptides were obtained in lyophilised form from a commercial supplier (AltaBioscience, University of Birmingham or Advanced Biomedical), and were produced at 5 micromole scale. N-terminals were protected by addition of an acetyl group, and the C-terminals were protected by addition of an amide group.
# Small quantities of peptide were weighed in sterile Eppendorf tubes, before addition of sufficient 0.5% EMEM to produce a 1.5 mM stock solution, which was frozen at −20° C. in aliquots.
# Vero cells were seeded at 125,000 cells per well in 10% EMEM, and were incubated overnight resulting in confluent monolayers. […] Virus stocks (p3) were thawed, and diluted in 0.5% EMEM such that there were around 100 pfu in 100 μl. Each 24-well plate was inoculated separately. Firstly 100 μl of virus stock was added to the peptide or control medium arranged on a 96-well plate. This was incubated at 37° C. for ten minutes before inoculation. Medium was removed from four wells of a 24-well plate containing confluent Vero, and the 200 μl inoculum added to the appropriate well. Once all wells were treated, the 24-well plate was incubated for a further 60-80 minutes. Finally the peptide-containing inoculum was removed, and 1 ml of 1% EMEM containing 1% carboxymethylcellulose was added to each well. Plates were incubated for a further 22 hours or in some experiments 40 hours, before removal of overlay, and addition of 10% formaldehyde in PBS. After a further one hour incubation, fixative was removed, monolayers washed several times with tap water, and stained with carbol fuchsin solubilised in water. After 30 minutes stain was removed, and plates washed several times with tap water, before being air dried. Plaques were counted using an Olympus IX70 Inverting Microscope, and antiviral effect expressed as a percentage of the control value for each peptide concentration. The IC50 was calculated from plots of inhibitory effect against peptide concentration.
Compound,IC50,efficacy for reducing HSV1 infectivity (in words),"Apparent IC50 (HSV1, Vero cells, Table 4 (Example 2))","IC50 (HSV1, Vero cells, Table 4 (Example 2), read-out: Apparent IC50)","IC50 (HSV-1, Vero cells, Table 6 (Example 3), read-out: IC50)"
CC(=O)N[C@@H](CC(C)C)C(=O)N[C@@H](CCCNC(=N)N)C(=O)N[C@@H](CCCCN)C(=O)N[C@@H](CC(C)C)C(=O)N1CCC[C@H]1C(=O)N[C@@H](CCCCN)C(=O)N[C@@H](CCCNC(=N)N)C(=O)N[C@@H](CC(C)C)C(=O)N[C@@H](CC(C)C)C(=O)N[C@@H](CC(C)C)C(=O)N[C@@H](CCCNC(=N)N)C(=O)N[C@@H](CCCCN)C(=O)N[C@@H](CC(C)C)C(=O)N1CCC[C@H]1C(=O)N[C@@H](CCCCN)C(=O)N[C@@H](CCCNC(=N)N)C(=O)N[C@@H](CC(C)C)C(=O)N[C@@H](CC(C)C)C(N)=O [MU 44] (Ac-LRKLPKRLLLRKLPKRLL-NH2),> 30 µM,,,,
CC(=O)N[C@@H](CC(C)C)C(=O)N[C@@H](CCCNC(=N)N)C(=O)N[C@@H](CCCCN)C(=O)N[C@@H](CC(C)C)C(=O)N[C@@H](CCCNC(=N)N)C(=O)N[C@@H](CCCCN)C(=O)N[C@@H](CCCNC(=N)N)C(=O)N[C@@H](CC(C)C)C(=O)N[C@@H](CC(C)C)C(=O)N[C@@H](CC(C)C)C(=O)N[C@@H](CCCNC(=N)N)C(=O)N[C@@H](CCCCN)C(=O)N[C@@H](CC(C)C)C(=O)N[C@@H](CCCNC(=N)N)C(=O)N[C@@H](CCCCN)C(N)=O [GIN 4] (Ac-LRKLRKRLLLRKLRK-NH2),29.5 µM,"no, or poor, efficacy",,,
"CC(=O)N[C@@H](CC(C)C)C(=O)N[C@@H](CCCNC(=N)N)C(=O)N[C@@H](CCCCN)C(=O)N[C@@H](CC(C)C)C(=O)N[C@@H](CCCNC(=N)N)C(=O)N[C@@H](CCCCN)C(=O)N[C@@H](CCCNC(=N)N)C(=O)N[C@@H](CC(C)C)C(=O)N[C@@H](CC(C)C)C(=O)N[C@@H](CCCNC(=N)N)C(=O)N[C@@H](CC(=O)O)C(=O)N[C@@H](C)C(=O)N[C@@H](CC(=O)O)C(=O)N[C@@H](CC(=O)O)C(=O)N[C@@H](CC(C)C)C(=O)N[C@@H](CCC(N)=O)C(=O)N[C@@H](CCCCN)C(=O)N[C@@H](CCCNC(=N)N)C(=O)N[C@@H](CC(C)C)C(=O)N[C@@H](C)C(N)=O [GIN 12, LRKLRKRLLR DADDLQKRLA] (Ac-LRKLRKRLLRDADDLQKRLA-NH2)",> 40 µM,"no, or poor, efficacy",,,
RLLLRKLRKRLL [GIN 3],,"no, or poor, efficacy",No,,
CC(=O)N[C@@H](CC(C)C)C(=O)N[C@@H](CCCNC(=N)N)C(=O)N[C@@H](CCCCN)C(=O)N[C@@H](CCCNC(=N)N)C(=O)N[C@@H](CC(C)C)C(=O)N[C@@H](CC(C)C)C(=O)N[C@@H](CC(C)C)C(=O)N[C@@H](CCCNC(=N)N)C(=O)N[C@@H](CCCCN)C(=O)N[C@@H](CC(C)C)C(=O)N[C@@H](CCCNC(=N)N)C(=O)N[C@@H](CCCCN)C(=O)N[C@@H](CCCNC(=N)N)C(=O)N[C@@H](CC(C)C)C(=O)N[C@@H](CC(C)C)C(N)=O [GIN 2] (Ac-LRKRLLLRKLRKRLL-NH2),> 40 µM,"no, or poor, efficacy",,,
CC[C@H](C)[C@H](NC(=O)[C@H](CO)NC(=O)[C@H](CO)NC(=O)[C@H](C)NC(=O)[C@H](CCCNC(=N)N)NC(=O)[C@H](CO)NC(=O)[C@H](Cc1ccccc1)NC(=O)[C@H](Cc1c[nH]cn1)NC(=O)[C@H](CC(=O)O)NC(=O)[C@H](CCC(N)=O)NC(=O)[C@H](CCSC)NC(=O)[C@@H](NC(=O)[C@H](CC(=O)O)NC(=O)[C@H](CC(C)C)NC(=O)[C@H](CCSC)NC(=O)[C@H](Cc1c[nH]cn1)NC(C)=O)C(C)C)C(=O)N[C@H](C(=O)N[C@@H](CC(=O)O)C(=O)N[C@@H](CCC(=O)O)C(=O)N[C@@H](CC(C)C)C(N)=O)[C@@H](C)CC [GIN 29] (Ac-HMLDVMQDHFSRASSIIDEL-NH2),38.5 µM,,,,
CC(=O)N[C@@H](CC(C)C)C(=O)N[C@@H](CCCNC(=N)N)C(=O)N[C@@H](CCCCN)C(=O)N[C@@H](CC(C)C)C(=O)N[C@@H](CCCNC(=N)N)C(=O)N[C@@H](CCCCN)C(=O)N[C@@H](CC(C)C)C(=O)N[C@@H](CCCNC(=N)N)C(=O)N[C@@H](CCCCN)C(=O)N[C@@H](CC(C)C)C(=O)N[C@@H](CCCNC(=N)N)C(=O)N[C@@H](CCCCN)C(=O)N[C@@H](CC(C)C)C(=O)N[C@@H](CCCNC(=N)N)C(=O)N[C@@H](CCCCN)C(=O)N[C@@H](CC(C)C)C(=O)N[C@@H](CCCNC(=N)N)C(=O)N[C@@H](CCCCN)C(N)=O [GIN 9] (Ac-LRKLRKLRKLRKLRKLRK-NH2),15.5 µM,had efficacy,,,
CSCC[C@H](NC(=O)[C@H](CCCNC(=N)N)NC(=O)[C@H](C)NC(=O)[C@H](CCCNC(=N)N)NC(=O)[C@H](CC(C)C)NC(=O)[C@H](CCCNC(=N)N)NC(=O)[C@H](CCC(=O)O)NC(=O)CNC(=O)[C@H](CCC(=O)O)NC(=O)[C@H](CCSC)NC(=O)[C@H](CCCNC(=N)N)NC(=O)[C@H](C)NC(=O)[C@H](CCCNC(=N)N)NC(=O)[C@H](CC(C)C)NC(=O)[C@H](CCCNC(=N)N)NC(=O)[C@H](CCC(=O)O)NC(=O)CNC(C)=O)C(=O)N[C@@H](CCC(=O)O)C(N)=O [GIN 14] (Ac-GERLRARMEGERLRARME-NH2),> 40 µM,"no, or poor, efficacy",,,
CC(=O)N[C@@H](CCCNC(=N)N)C(=O)N[C@@H](CC(C)C)C(=O)N[C@@H](CC(C)C)C(=O)N[C@@H](CCCNC(=N)N)C(=O)N[C@@H](CC(C)C)C(=O)N[C@@H](CC(C)C)C(=O)N[C@@H](CCCNC(=N)N)C(=O)N[C@@H](CC(C)C)C(=O)N[C@@H](CC(C)C)C(=O)N[C@@H](CCCNC(=N)N)C(=O)N[C@@H](CC(C)C)C(=O)N[C@@H](CC(C)C)C(=O)N[C@@H](CCCNC(=N)N)C(=O)N[C@@H](CC(C)C)C(=O)N[C@@H](CC(C)C)C(=O)N[C@@H](CCCNC(=N)N)C(=O)N[C@@H](CC(C)C)C(=O)N[C@@H](CC(C)C)C(N)=O [GIN 10] (Ac-RLLRLLRLLRLLRLLRLL-NH2),,"no, or poor, efficacy",,39 µM,39 µM
CC(=O)N[C@@H](CC(C)C)C(=O)N[C@@H](CCCNC(=N)N)C(=O)N[C@@H](CCCCN)C(=O)N[C@@H](CC(C)C)C(=O)N[C@@H](CCCNC(=N)N)C(=O)N[C@@H](CCCCN)C(=O)N[C@@H](CCCNC(=N)N)C(=O)N[C@@H](CC(C)C)C(=O)N[C@@H](CCCNC(=N)N)C(=O)N[C@@H](CCCCN)C(=O)N[C@@H](CC(C)C)C(=O)N[C@@H](CCCNC(=N)N)C(=O)N[C@@H](CCCCN)C(=O)N[C@@H](CCCNC(=N)N)C(N)=O [GIN 8] (Ac-LRKLRKRLRKLRKR-NH2),13 µM,had efficacy,,,
